Data as given in patent publication US6358885B1, “Substituted phenylheterocyclic herbicides” (Mississippi State University, priority 1992, dated 2002).

Tests used:
Japonica rice [1] = test: Test D paddy water application plant response rating 0 to 100; type: in vivo, Oryza sativa; conditions: approx. 21 days
Text: (§1) Plastic pots were partially filled with silt loam soil. The soil was then saturated with water. […] After planting, water levels were raised to 3 cm above the soil surface and maintained at this level throughout the test. Chemical treatments were formulated in a non-phytotoxic solvent and applied directly to the paddy water. Treated plants and controls were maintained in a greenhouse for approximately 21 days, after which all species were compared to controls and visually evaluated. […] A dash (-) response means no test result.

barnyardgrass [2] = test: as above; type: in vivo, Echinochloa crus-galli; conditions: approx. 21 days
Text: as §1

duck salad = test: as above; type: in vivo, Heteranthera limosa; conditions: approx. 21 days
Text: as §1

umbrella sedge = test: as above; type: in vivo, Cyperus difformis; conditions: approx. 21 days
Text: as §1

arrowhead = test: as above; type: in vivo, Sagittaria spp.; conditions: approx. 21 days
Text: as §1

waterchestnut = test: as above; type: in vivo, Eleocharis spp.; conditions: approx. 21 days
Text: as §1

Japonica rice [3] = test: Test E paddy water application plant response rating 0 to 100; type: in vivo, oryza sativa; conditions: Flood, 0 to 100 scale, approx. 21 days
Text: (§2) Plastic pots were partially filled with silt loam soil. […] At testing, the water level for all plantings was raised to 2 cm above the soil surface. Chemical treatments were formulated in a non-phytotoxic solvent and applied directly to the paddy water. Treated plants and controls were maintained in a greenhouse for approximately 21 days, after which all species were compared to controls and visually evaluated. […] A dash (-) response means no test result.

barnyardgrass [4] = test: as above; type: in vivo, Echinochloa crus-galli; conditions: Flood, 0 to 100 scale, approx. 21 days
Text: as §2

[5] = Rate 500 g/ha, 0 to 100 scale (0 no effect, 100 complete control)

C=C(Cl)COc1cc(-c2nn3c(c2Cl)CCCC3)c(F)cc1Cl [Compound 40]
Japonica rice plant response rating (Japonica rice [1]; Rate 4 g/ha, 0 to 100 scale): 10
Japonica rice plant response rating (Japonica rice [1]; Rate 8 g/ha, 0 to 100 scale): 10
Japonica rice plant response rating (Japonica rice [1]; Rate 16 g/ha, 0 to 100 scale): 15
Japonica rice plant response rating (Japonica rice [1]; Rate 32 g/ha, 0 to 100 scale): 20
Japonica rice plant response rating (Japonica rice [1]; Rate 64 g/ha, 0 to 100 scale): 30
Barnyardgrass 2 plant response rating (barnyardgrass [2]; Rate 4 g/ha, 0 to 100 scale): 20
Barnyardgrass 2 plant response rating (barnyardgrass [2]; Rate 8 g/ha, 0 to 100 scale): 65
Barnyardgrass 2 plant response rating (barnyardgrass [2]; Rate 16 g/ha, 0 to 100 scale): 70
Barnyardgrass 2 plant response rating (barnyardgrass [2]; Rate 32 g/ha, 0 to 100 scale): 100
Barnyardgrass 2 plant response rating (barnyardgrass [2]; Rate 64 g/ha, 0 to 100 scale): 100
Duck salad plant response rating (duck salad; Rate 4 g/ha, 0 to 100 scale): 0
Duck salad plant response rating (duck salad; Rate 8 g/ha, 0 to 100 scale): 0
Duck salad plant response rating (duck salad; Rate 16 g/ha, 0 to 100 scale): 0
Duck salad plant response rating (duck salad; Rate 32 g/ha, 0 to 100 scale): 0
Duck salad plant response rating (duck salad; Rate 64 g/ha, 0 to 100 scale): 45
Umbrella sedge plant response rating (umbrella sedge; Rate 4 g/ha, 0 to 100 scale): 0
Umbrella sedge plant response rating (umbrella sedge; Rate 8 g/ha, 0 to 100 scale): 0
Umbrella sedge plant response rating (umbrella sedge; Rate 16 g/ha, 0 to 100 scale): 15
Umbrella sedge plant response rating (umbrella sedge; Rate 32 g/ha, 0 to 100 scale): 30
Umbrella sedge plant response rating (umbrella sedge; Rate 64 g/ha, 0 to 100 scale): 80
Arrowhead plant response rating (arrowhead; Rate 4 g/ha, 0 to 100 scale): 0
Arrowhead plant response rating (arrowhead; Rate 8 g/ha, 0 to 100 scale): 0
Arrowhead plant response rating (arrowhead; Rate 16 g/ha, 0 to 100 scale): 0
Arrowhead plant response rating (arrowhead; Rate 32 g/ha, 0 to 100 scale): 0
Arrowhead plant response rating (arrowhead; Rate 64 g/ha, 0 to 100 scale): 0
Waterchestnut plant response rating (waterchestnut; Rate 4 g/ha, 0 to 100 scale): 20
Waterchestnut plant response rating (waterchestnut; Rate 8 g/ha, 0 to 100 scale): 20
Waterchestnut plant response rating (waterchestnut; Rate 16 g/ha, 0 to 100 scale): 30
Waterchestnut plant response rating (waterchestnut; Rate 32 g/ha, 0 to 100 scale): 30
Waterchestnut plant response rating (waterchestnut; Rate 64 g/ha, 0 to 100 scale): 60
Japonica 1 plant response rating (Japonica rice [3]; Rate 8 g/ha): 15
Japonica 2 plant response rating (Japonica rice [3]; Rate 8 g/ha): 10
Japonica 1 plant response rating (Japonica rice [3]; Rate 16 g/ha): 10
Japonica 2 plant response rating (Japonica rice [3]; Rate 16 g/ha): 15
Japonica 1 plant response rating (Japonica rice [3]; Rate 32 g/ha): 15
Japonica 2 plant response rating (Japonica rice [3]; Rate 32 g/ha): 20
Japonica 1 plant response rating (Japonica rice [3]; Rate 64 g/ha): 15
Japonica 2 plant response rating (Japonica rice [3]; Rate 64 g/ha): 15
Japonica 1 plant response rating (Japonica rice [3]; Rate 125 g/ha): 20
Japonica 2 plant response rating (Japonica rice [3]; Rate 125 g/ha): 20
Barnyardgrass 2 plant response rating (barnyardgrass [4]; Rate 8 g/ha): 15
Barnyardgrass 3 plant response rating (barnyardgrass [4]; Rate 8 g/ha): 25
Barnyardgrass 2 plant response rating (barnyardgrass [4]; Rate 16 g/ha): 25
Barnyardgrass 3 plant response rating (barnyardgrass [4]; Rate 16 g/ha): 20
Barnyardgrass 2 plant response rating (barnyardgrass [4]; Rate 32 g/ha): 45
Barnyardgrass 3 plant response rating (barnyardgrass [4]; Rate 32 g/ha): 35
Barnyardgrass 2 plant response rating (barnyardgrass [4]; Rate 64 g/ha): 60
Barnyardgrass 3 plant response rating (barnyardgrass [4]; Rate 64 g/ha): 40
Barnyardgrass 2 plant response rating (barnyardgrass [4]; Rate 125 g/ha): 85
Barnyardgrass 3 plant response rating (barnyardgrass [4]; Rate 125 g/ha): 50

C=CCN1C(=O)COc2cc(F)c(-c3nn4c(c3Br)CCCC4)cc21 [Compound 41]
Japonica 1 plant response rating (Japonica rice [3]; Rate 8 g/ha): 25
Japonica 2 plant response rating (Japonica rice [3]; Rate 8 g/ha): 15
Japonica 1 plant response rating (Japonica rice [3]; Rate 16 g/ha): 35
Japonica 2 plant response rating (Japonica rice [3]; Rate 16 g/ha): 20
Japonica 1 plant response rating (Japonica rice [3]; Rate 32 g/ha): 45
Japonica 2 plant response rating (Japonica rice [3]; Rate 32 g/ha): 30
Japonica 1 plant response rating (Japonica rice [3]; Rate 64 g/ha): 65
Japonica 2 plant response rating (Japonica rice [3]; Rate 64 g/ha): 45
Japonica 1 plant response rating (Japonica rice [3]; Rate 125 g/ha): 95
Japonica 2 plant response rating (Japonica rice [3]; Rate 125 g/ha): 55
Barnyardgrass 2 plant response rating (barnyardgrass [4]; Rate 8 g/ha): 25
Barnyardgrass 3 plant response rating (barnyardgrass [4]; Rate 8 g/ha): 20
Barnyardgrass 2 plant response rating (barnyardgrass [4]; Rate 16 g/ha): 30
Barnyardgrass 3 plant response rating (barnyardgrass [4]; Rate 16 g/ha): 25
Barnyardgrass 2 plant response rating (barnyardgrass [4]; Rate 32 g/ha): 55
Barnyardgrass 3 plant response rating (barnyardgrass [4]; Rate 32 g/ha): 35
Barnyardgrass 2 plant response rating (barnyardgrass [4]; Rate 64 g/ha): 65
Barnyardgrass 3 plant response rating (barnyardgrass [4]; Rate 64 g/ha): 45
Barnyardgrass 2 plant response rating (barnyardgrass [4]; Rate 125 g/ha): 98
Barnyardgrass 3 plant response rating (barnyardgrass [4]; Rate 125 g/ha): 55

Fc1cc(Cl)ccc1-c1nn2c(c1Br)CCCC2 [Compound 52]
Japonica rice plant response rating (Japonica rice [1]; Rate 32 g/ha, 0 to 100 scale): 20
Japonica rice plant response rating (Japonica rice [1]; Rate 64 g/ha, 0 to 100 scale): 20
Japonica rice plant response rating (Japonica rice [1]; Rate 125 g/ha, 0 to 100 scale): 25
Japonica rice plant response rating (Japonica rice [1]; Rate 250 g/ha, 0 to 100 scale): 25
Japonica rice plant response rating (Japonica rice [1]; [5]): 30
Barnyardgrass 2 plant response rating (barnyardgrass [2]; Rate 32 g/ha, 0 to 100 scale): 100
Barnyardgrass 2 plant response rating (barnyardgrass [2]; Rate 64 g/ha, 0 to 100 scale): 100
Barnyardgrass 2 plant response rating (barnyardgrass [2]; Rate 125 g/ha, 0 to 100 scale): 100
Barnyardgrass 2 plant response rating (barnyardgrass [2]; Rate 250 g/ha, 0 to 100 scale): 100
Barnyardgrass 2 plant response rating (barnyardgrass [2]; [5]): 100
Duck salad plant response rating (duck salad; Rate 32 g/ha, 0 to 100 scale): 0
Duck salad plant response rating (duck salad; Rate 64 g/ha, 0 to 100 scale): 10
Duck salad plant response rating (duck salad; Rate 125 g/ha, 0 to 100 scale): 80
Duck salad plant response rating (duck salad; Rate 250 g/ha, 0 to 100 scale): 80
Duck salad plant response rating (duck salad; [5]): 100
Umbrella sedge plant response rating (umbrella sedge; Rate 32 g/ha, 0 to 100 scale): 0
Umbrella sedge plant response rating (umbrella sedge; Rate 64 g/ha, 0 to 100 scale): 0
Umbrella sedge plant response rating (umbrella sedge; Rate 125 g/ha, 0 to 100 scale): 20
Umbrella sedge plant response rating (umbrella sedge; Rate 250 g/ha, 0 to 100 scale): 50
Umbrella sedge plant response rating (umbrella sedge; [5]): 80
Arrowhead plant response rating (arrowhead; Rate 32 g/ha, 0 to 100 scale): 10
Arrowhead plant response rating (arrowhead; Rate 64 g/ha, 0 to 100 scale): 10
Arrowhead plant response rating (arrowhead; Rate 125 g/ha, 0 to 100 scale): 40
Arrowhead plant response rating (arrowhead; Rate 250 g/ha, 0 to 100 scale): 30
Arrowhead plant response rating (arrowhead; [5]): 40
Waterchestnut plant response rating (waterchestnut; Rate 32 g/ha, 0 to 100 scale): 0
Waterchestnut plant response rating (waterchestnut; Rate 64 g/ha, 0 to 100 scale): 15
Waterchestnut plant response rating (waterchestnut; Rate 125 g/ha, 0 to 100 scale): 25
Waterchestnut plant response rating (waterchestnut; Rate 250 g/ha, 0 to 100 scale): 40
Waterchestnut plant response rating (waterchestnut; [5]): 65
Japonica 1 plant response rating (Japonica rice [3]; Rate 8 g/ha): 0
Japonica 2 plant response rating (Japonica rice [3]; Rate 8 g/ha): 10
Japonica 1 plant response rating (Japonica rice [3]; Rate 16 g/ha): 10
Japonica 2 plant response rating (Japonica rice [3]; Rate 16 g/ha): 15
Japonica 1 plant response rating (Japonica rice [3]; Rate 32 g/ha): 20
Japonica 2 plant response rating (Japonica rice [3]; Rate 32 g/ha): 20
Japonica 1 plant response rating (Japonica rice [3]; Rate 64 g/ha): 35
Japonica 2 plant response rating (Japonica rice [3]; Rate 64 g/ha): 25
Japonica 1 plant response rating (Japonica rice [3]; Rate 125 g/ha): 55
Japonica 2 plant response rating (Japonica rice [3]; Rate 125 g/ha): 40
Barnyardgrass 2 plant response rating (barnyardgrass [4]; Rate 8 g/ha): 40
Barnyardgrass 3 plant response rating (barnyardgrass [4]; Rate 8 g/ha): 35
Barnyardgrass 2 plant response rating (barnyardgrass [4]; Rate 16 g/ha): 45
Barnyardgrass 3 plant response rating (barnyardgrass [4]; Rate 16 g/ha): 55
Barnyardgrass 2 plant response rating (barnyardgrass [4]; Rate 32 g/ha): 100
Barnyardgrass 3 plant response rating (barnyardgrass [4]; Rate 32 g/ha): 65
Barnyardgrass 2 plant response rating (barnyardgrass [4]; Rate 64 g/ha): 100
Barnyardgrass 3 plant response rating (barnyardgrass [4]; Rate 64 g/ha): 100
Barnyardgrass 2 plant response rating (barnyardgrass [4]; Rate 125 g/ha): 100
Barnyardgrass 3 plant response rating (barnyardgrass [4]; Rate 125 g/ha): 100
